# Assay results: US8309685B2 (Celgene Avilomics Research, Inc., priority 2007, dated 2012)
# Read-outs that look alike come from different tables or passages of the source.
# How the values were obtained:
# [1] = test system: cell line ET (luc-ubi-neo/ET), human Huh7 hepatoma cell line; test: Method A: cytotoxicity in ET replicon cells (CytoTox-1); format: cell-based; conditions: concentration decreasing cell viability by 50%, 72 hr
# Procedure: The compounds were assayed to evaluate the antiviral activity and cytotoxicity of compounds in vitro using HCV RNA replicons. This assay used the cell line ET (luc-ubi-neo/ET), which is a human Huh7 hepatoma cell line that contains an HCV RNA replicon with a stable luciferase (Luc) reporter and three cell culture-adaptive mutations. […]
# The ET cell line was grown in Dulbecco's modified essential media (DMEM), 10% fetal bovine serum (FBS), 1% penicillin-streptomycin (pen-strep), 1% glutamine, 250 μg/ml G418 in a 5% CO2 incubator at 37° C. All cell culture reagents were obtained from Mediatech (Manassas, Va.). Cells were trypsinized (1% trypsin:EDTA) and plated out at 5×10^3 cells/well in white 96-well assay plates (Costar) dedicated to cell number (cytotoxicity) or antiviral activity assessments. Drugs were added at six 3-fold concentrations each and the assay was run in DMEM, 5% FBS, 1% pen-strep, 1% glutamine. Human interferon alpha-2b (PBL Biolabs, New Brunswick, N.J.) was included in each run as a positive control compound. Cells were processed 72 hr post drug addition when the cells are still subconfluent. Antiviral activity was measured by analyzing replicon-derived luciferase activity using the Steady-Glo Luciferase Assay System (Promega, Madison, Wis.) according to manufacturer's instruction. The number of cells in each well was determined by CytoTox-1 reagent (Promega). […].
# [2] = biological target: T1, D168A mutant of the HCV NS3/4A 1b protease enzyme (Hepatitis C virus genotype 1b, UniProt P26663, D1194A); test: HCV Protease FRET Assay (IC50), D168A mutant; format: biochemical; conditions: read-out: Inhibition, HCV D168A; D168A enzyme, FRET assay
# T1 construct: 10× stocks of NS3/4A protease enzyme from Bioenza (Mountain View, Calif.); purchased Bioenza (Mountain View, Calif.)
# [3] = biological target: T2, wild type HCV NS3/4A 1b protease enzyme (Hepatitis C virus genotype 1b, UniProt P26663); test: HCV Protease FRET Assay (IC50_APP), wild type; format: biochemical; conditions: read-out: IC50_APP, WT; apparent IC50, wild type NS3/4A 1b
# T2 construct: 10× stocks of NS3/4A protease enzyme from Bioenza (Mountain View, Calif.); purchased Bioenza (Mountain View, Calif.)
# [4] = biological target: T3, A156T mutant of the HCV NS3/4A 1b protease enzyme (Hepatitis C virus genotype 1b, UniProt P26663, A1182T); test: HCV Protease FRET Assay (IC50), A156T mutant; format: biochemical; conditions: read-out: Inhibition, HCV A156T; A156T enzyme, FRET assay
# T3 construct: 10× stocks of NS3/4A protease enzyme from Bioenza (Mountain View, Calif.); purchased Bioenza (Mountain View, Calif.)
# Procedure: HCV Protease FRET Assay for Wild Type and Mutated NS3/4A 1b Enzymes (IC50)
# The protocol is a modified FRET-based assay (v—02) from In Vitro Resistance Studies of HCV Serine Protease Inhibitors, 2004, JBC, vol. 279, No. 17, pp 17508-17514.
# 10× stocks of NS3/4A protease enzyme from Bioenza (Mountain View, Calif.) and 1.13× 5-FAM/QXL™ 520 FRET peptide substrate from Anaspec (San Jose, Calif.) were prepared in 50 mM HEPES, pH 7.8, 100 mM NaCl, 5 mM DTT and 20% glycerol. 5 μL of each enzyme were pre-incubated in a Corning (#3573) 384-well, black, non-treated microtiter plate (Corning, N.Y.) for 30 min at 25° C. with a 0.5 μL volume of 50% DMSO and serially diluted compounds prepared in 50% DMSO. Protease reactions were started with the addition of 45 μL of the FRET substrate and monitored for 120 minutes at λex487/λem514 through Quad^4 monochromoters in a Synergy^4 plate reader from BioTek (Winooski, Vt.). At the conclusion of each assay, progress curves from each well were examined for linear reaction kinetics and fit statistics (R^2, absolute sum of squares). Initial velocity (0 minutes to 30+ minutes) from each reaction was determined from the slope of a plot of relative fluorescence units vs time (minutes) and then plotted against inhibitor concentration to estimate IC50 from log[Inhibitor] vs Response, Variable Slope model in GraphPad Prism from GraphPad Software (San Diego, Calif.).
# The compound numbers correspond to the compound numbers in Table 3. […] ;
# [5] = test system: HCV RNA replicon in cell line ET (luc-ubi-neo/ET), human Huh7 hepatoma; test: Method A: HCV RNA replicon antiviral assay (luciferase, ET cell line); format: cell-based, Hepatitis C virus; conditions: Hepatitis C virus, Huh-7
# Summary of the method: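 Six 3-fold dilutions of each drug were tested on subconfluent luc-ubi-neo/ET Huh7 replicon cells (5×10^3/well) for 72 hr at 37 °C. EC50 and EC90 came from luciferase read-out, IC50 from CytoTox-1 cell number, and […]; interferon alpha-2b was run each time as control.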
# [6] = biological target: T1, D168A mutant of the HCV NS3/4A 1b protease enzyme; test: HCV Protease FRET Assay (IC50_APP), D168A mutant; format: biochemical; conditions: apparent IC50, D168A mutant; read-out: IC50_APP, HCV D168A
# [7] = biological target: T3, A156T mutant of the HCV NS3/4A 1b protease enzyme; test: HCV Protease FRET Assay (IC50_APP), A156T mutant; format: biochemical; conditions: apparent IC50, A156T mutant; read-out: IC50_APP, HCV A156T
# [8] = biological target: T2, wild type HCV NS3/4A 1b protease enzyme; test: biochemical; format: biochemical; conditions: read-out: Inhibition, WT; WT enzyme, FRET assay
# [9] = Replicon, assay of Example 22, 72 hr, read-out: Inhibition, Replicon
# [10] = assay described in Example 22, read-out: Replicon (IC50)
structure (smiles),measurement,setting,value
"C=CC(=O)N(C)CC[C@H](NC(=O)OC(C)(C)C)C(=O)N1C[C@H](Oc2cc(-c3ccccc3)nc3cc(OC)ccc23)C[C@H]1C(=O)N[C@]1(C(=O)NS(=O)(=O)c2ccccc2)C[C@H]1C=C [Compound I-12, (2S)-2-[[(1,1-dimethylethoxy)carbonyl]amino]-4-(2-propenoyl)methylamino-butanoyl-(4R)-4-[(7-methoxy-2-phenyl-4-quinolinyl)oxy]-L-prolyl-1-amino-2-ethenyl-N-(phenylsulfonyl)-(1R,2S)-cyclopropanecarboxamide]","Inhibition, Cytotoxicity",[1],"D (IC50>1000 nM and <10,000 nM)"
same,IC50,[2],10 to 100 nM
same,IC50,[3],< 10 nM
same,IC50,[4],10 to 100 nM
same,IC90,[5]; assay described in Example 22,100 to 1000 nM
same,IC50,[5]; [9],10 to 100 nM
same,IC50,[5]; [10],10 to 100 nM
same,IC50,[6],1000 to 10000 nM
same,IC50,[7],1000 to 10000 nM
same,IC50,[8],< 10 nM
"C=C[C@@H]1C[C@]1(NC(=O)[C@@H]1C[C@@H](Oc2cc(-c3ccccc3)nc3cc(OC)ccc23)CN1C(=O)[C@H](CNC(=O)C(C)Br)NC(=O)OC(C)(C)C)C(=O)NS(=O)(=O)c1ccccc1 (stereo partly drawn) [Compound I-22, tert-butyl(S)-3-(2-bromopropanamido)-1-((2S,4R)-4-(7-methoxy-2-phenylquinolin-4-yloxy)-2-((1R,2S)-1-(phenylsulfonylcarbamoyl)-2-vinylcyclopropylcarbamoyl)pyrrolidin-1-yl)-1-oxopropan-2-ylcarbamate]","Inhibition, Cytotoxicity",[1],"D (IC50>1000 nM and <10,000 nM)"
same,IC50,[2],10 to 100 nM
same,IC50,[3],< 10 nM
same,IC50,[4],10 to 100 nM
same,IC90,[5]; assay described in Example 22,> 10000 nM
same,IC50,[5]; [9],100 to 1000 nM
same,IC50,[5]; [10],100 to 1000 nM
same,IC50,[6],1000 to 10000 nM
same,IC50,[7],1000 to 10000 nM
same,IC50,[8],< 10 nM
"C=CC(=O)N(C)C[C@H](NC(=O)OC(C)(C)C)C(=O)N1C[C@H](Oc2cc(-c3ccccc3)nc3cc(OC)ccc23)C[C@H]1C(=O)N[C@]1(C(=O)NS(=O)(=O)c2ccccc2)C[C@H]1C=C [Compound I-28, tert-butyl-(S)-1-((2S,4R)-4-(7-methoxy-2-phenylquinolin-4-yloxy)-2-((1R,2S)-1-(phenylsulfonylcarbamoyl)-2-vinylcyclopropylcarbamoyl)pyrrolidin-1-yl)-3-(N-methylacrylamido)-1-oxopropan-2-ylcarbamate]","Inhibition, Cytotoxicity",[1],"D (IC50>1000 nM and <10,000 nM)"
same,IC50,[2],100 to 1000 nM
same,IC50,[3],< 10 nM
same,IC50,[4],10 to 100 nM
same,IC90,[5]; assay described in Example 22,100 to 1000 nM
same,IC50,[5]; [9],< 10 nM
same,IC50,[5]; [10],10 to 100 nM
same,IC50,[6],1000 to 10000 nM
same,IC50,[7],1000 to 10000 nM
same,IC50,[8],< 10 nM
"C=C[C@@H]1C[C@]1(NC(=O)[C@@H]1C[C@@H](Oc2cc(-c3ccccc3)nc3cc(OC)ccc23)CN1C(=O)[C@H](CN(C)C(=O)[C@H](Cl)c1ccccc1)NC(=O)OC(C)(C)C)C(=O)NS(=O)(=O)c1ccccc1 [Compound I-33, tert-butyl-(2S)-3-(2-chloro-N-methyl-2-phenylacetamido)-1-((2S,4R)-4-(7-methoxy-2-phenylquinolin-4-yloxy)-2-((1R,2S)-1-(phenylsulfonylcarbamoyl)-2-vinylcyclopropylcarbamoyl)pyrrolidin-1-yl)-1-oxopropan-2-ylcarbamate]","Inhibition, Cytotoxicity",[1],"E (IC50≧10,000 nM)"
same,IC50,[2],100 to 1000 nM
same,IC50,[3],< 10 nM
same,IC50,[4],100 to 1000 nM
same,IC90,[5]; assay described in Example 22,10 to 100 nM
same,IC50,[5]; [9],< 10 nM
same,IC50,[5]; [10],< 10 nM
same,IC50,[6],1000 to 10000 nM
same,IC50,[7],1000 to 10000 nM
same,IC50,[8],< 10 nM
"C=CC(=O)NC[C@H](NC(=O)OC(C)(C)C)C(=O)N1C[C@H](Oc2cc(-c3ccccc3)nc3cc(OC)ccc23)C[C@H]1C(=O)N[C@]1(C(=O)NS(=O)(=O)C2CC2)C[C@H]1C=C [Compound I-35, tert-butyl-(S)-3-acrylamido-1-((2S,4R)-2-((1R,2S)-1-(cyclopropylsulfonylcarbamoyl)-2-vinylcyclopropylcarbamoyl)-4-(7-methoxy-2-phenylquinolin-4-yloxy)pyrrolidin-1-yl)-1-oxopropan-2-ylcarbamate]","Inhibition, Cytotoxicity",[1],C (IC50>100 nM and ≦1000 nM)
same,IC50,[2],< 10 nM
same,IC50,[3],< 10 nM
same,IC50,[4],< 10 nM
same,IC90,[5]; assay described in Example 22,100 to 1000 nM
same,IC50,[5]; [9],< 10 nM
same,IC50,[5]; [10],10 to 100 nM
same,IC50,[6],100 to 1000 nM
same,IC50,[7],100 to 1000 nM
same,IC50,[8],< 10 nM
"C=CC(=O)NCC(=O)N1C[C@H](Oc2cc(-c3ccccc3)nc3cc(OC)ccc23)C[C@H]1C(=O)N[C@]1(C(=O)NS(=O)(=O)C2CC2)C[C@H]1C=C [Compound I-39, (2S,4R)-1-(2-acrylamidoacetyl)-N-((1R,2S)-1-(cyclopropylsulfonylcarbamoyl)-2-vinylcyclopropyl)-4-(7-methoxy-2-phenylquinolin-4-yloxy)pyrrolidine-2-carboxamide]","Inhibition, Cytotoxicity",[1],C (IC50>100 nM and ≦1000 nM)
same,IC50,[2],< 10 nM
same,IC50,[3],< 10 nM
same,IC50,[4],< 10 nM
same,IC90,[5]; assay described in Example 22,100 to 1000 nM
same,IC50,[5]; [9],10 to 100 nM
same,IC50,[5]; [10],10 to 100 nM
same,IC50,[6],100 to 1000 nM
same,IC50,[7],10 to 100 nM
same,IC50,[8],< 10 nM
"C=CC(=O)N[C@H](C)C(=O)N1C[C@H](Oc2cc(-c3ccccc3)nc3cc(OC)ccc23)C[C@H]1C(=O)N[C@]1(C(=O)NS(=O)(=O)c2ccccc2)C[C@H]1C=C [Compound I-46, (2S,4R)-1-((R)-2-acrylamidopropanoyl)-4-(7-methoxy-2-phenylquinolin-4-yloxy)-N-((1R,2S)-1-(phenylsulfonylcarbamoyl)-2-vinylcyclopropyl)pyrrolidine-2-carboxamide]","Inhibition, Cytotoxicity",[1],C (IC50>100 nM and ≦1000 nM)
same,IC50,[2],< 10 nM
same,IC50,[3],< 10 nM
same,IC50,[4],< 10 nM
same,IC90,[5]; assay described in Example 22,< 10 nM
same,IC50,[5]; [9],< 10 nM
same,IC50,[5]; [10],< 10 nM
same,IC50,[6],100 to 1000 nM
same,IC50,[7],10 to 100 nM
same,IC50,[8],< 10 nM
